PMC8561395 (Biochemistry, 2021)
Like-named read-outs stand apart in the source and are kept apart here.

Columns and labels:
[1] = molecular target: T1, SsoPTP (Saccharolobus solfataricus, UniProt Q97VZ7); assay: Inhibition of SsoPTP activity by buffers, pNPP as substrate
T1 sequence (Q97VZ7 1-161): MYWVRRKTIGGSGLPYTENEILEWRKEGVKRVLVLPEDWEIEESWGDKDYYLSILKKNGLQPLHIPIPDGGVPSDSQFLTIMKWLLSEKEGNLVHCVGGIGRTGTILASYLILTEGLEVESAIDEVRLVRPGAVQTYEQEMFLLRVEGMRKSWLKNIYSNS

[2] = system: bovine low molecular weight PTP; conditions: more strongly than observed for SsoPTP; cited from earlier work
[3] = molecular target: T1, SsoPTP; assay: Steady-state Michaelis-Menten kinetics with pNPP; format: biochemical, Sulfolobus solfataricus; conditions: read-out: KM for pNPP

Compound | Inhibition of SsoPTP (in words) ([1]; pNPP substrate) | Ki [1] | further results
CC(=O)O [Acetic acid] | no inhibitory effect |  | 
O=S(=O)(O)CCCNC1CCCCC1 [CAPS] |  |  | Ki ([1]; pNPP substrate, 100 mM sodium acetate buffer pH 5.0, inhibitor 5–400 mM): 54 ± 11 mM
O=C(O)CC(O)(CC(=O)O)C(=O)O [Citric acid] |  | 8 ± 1 mM | 
O=S(=O)(O)CCN1CCN(CCO)CC1 [HEPES] |  | 44 ± 8 mM | Strength of inhibition of bovine low molecular weight PTP relative to SsoPTP [2]: about 10 fold
O=S(=O)(O)CCCN1CCOCC1 [MOPS] | did not show measurable inhibition |  | 
O=[N+]([O-])c1ccc(OP(=O)(O)O)cc1 [pNPP, p-nitrophenyl phosphate] |  |  | Km [3]: 3.4 mM
